Measurements published in patent publication US20100151053A1, “SYSTEM AND METHOD FOR THE DELIVERY OF A SANITIZING FOAM” (GREEN SOURCE AUTOMATED, LLC, priority 2008, published 2010).

Test: volumes of gas dissolved in teat dip solution under pressure
Type: physicochemical
Details: standard room temperature and 100 psi pressure; TeatKote 10/111 dip solution
Text: When a vessel containing the dip solution is pressurized, the gas mixture pressure causes the gasses to dissolve into the dip and an amount of energy caused by the pressurization acts upon the system. The system is allowed to come to equilibrium and the temperature is controlled such that any temperature rise caused by this energy introduction is removed. Henry's law states: “the amount of any given gas that will dissolve in a liquid at a given temperature is a function of the partial pressure of the gas that is in contact with the liquid and the solubility coefficient of the gas in the particular liquid.” In other words, the amount of gas that can be dissolved into a liquid depends on the temperature, the pressure, and how well the particular liquid absorbs gases. With that being said, in order to make a consistent application of the preparation as a foam on the teats of a cow, a consistent pressure and temperature is beneficial. A recirculation loop from the pressurized tank to the nozzle and back to the tank can, for example, be employed to make sure the temperature and dissolved gas content remain consistent with that of the dip mixture in the tank in an embodiment of the invention.
In various embodiments of the invention, a pressure vessel is used to hold the dip solution and expose it to the propellant/diffused gas or gasses. […]

| volumes dissolved, gas versus dip solution | Structure (SMILES) |
| --- | --- |
| approximately 4.5 volumes | O=C=O [CO2, Carbon dioxide] |
| approximately four | [N-]=[N+]=O [Example N2O, nitrous oxide] |
